This passage reports melting point, pest or weed control and inhibition of growth results from US8415272B2, “Quinoline derivatives and their use as fungicides” (Syngenta Crop Protection LLC, priority 2008, dated 2013).

One data set relates to Phytophthora infestans. Description: whole plant or invertebrate. Format: in vivo. Conditions: in Solanum lycopersicum, foliar, 96 h, read-out: control of fungal infection, Phytophthora infestans.
A further data set has as its system Plasmopara viticola. As to the kind of experiment: Leaf disk assay, Plasmopara viticola (downy mildew of grapevine), preventive. Format: in vivo. As to conditions: foliar, 168 h, grapevine leaf disks, assessed seven days after inoculation, read-out: control of fungal infection, Plasmopara viticola.
In another data set the test system is Botrytis cinerea. Description: Leaf disk assay, Botrytis cinerea (grey mould) on bean, preventive. Conditions: foliar, 96 h, bean leaf disks, assessed four days after inoculation, read-out: control of fungal infection, Botrytis cinerea. Format: in vivo.
Data set [1] relates to Erysiphe graminis f.sp. tritici. Description: Leaf disk assay, Erysiphe graminis f.sp. tritici (wheat powdery mildew), preventive. It counts as in vivo. As to conditions: Blumeria graminis, foliar, 96 h, wheat leaf segments, assessed four days after inoculation, read-out: control of fungal infection, Erysiphe graminis f.sp. tritici. The gist of the method: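 Wheat leaf segments on agar were sprayed with compound at 200 ppm (DMSO stock diluted in water). After 12–24 h drying they were inoculated with powdery mildew spores. Preventive activity was scored 4 days after inoculation.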

The test system of data set [2] is Puccinia recondita f.sp. tritici. As to the kind of experiment: Leaf disk assay, Puccinia recondita f.sp. tritici (wheat brown rust), preventive. Conditions: foliar, 216 h, wheat leaf segments, assessed nine days after inoculation, read-out: control of fungal infection, Puccinia recondita f.sp. tritici. It counts as in vivo.
A further data set deals with Pyrenophora teres. Description: Leaf disk assay, Pyrenophora teres (barley net blotch), preventive. Format: in vivo. As to conditions: foliar, 96 h, barley leaf segments, assessed four days after inoculation, read-out: control of fungal infection, Pyrenophora teres. The gist of the method:
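Barley leaf segments on agar were sprayed with compound at 200 ppm (from DMSO stock diluted in water) and dried for 12-24 h before inoculation with a Pyrenophora teres spore suspension. Preventive fungicidal activity was scored 4 days after inoculation.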

The subject of another data set is Septoria nodorum. Description: Leaf disk assay, Septoria nodorum (wheat glume blotch), preventive. Conditions: Parastagonospora nodorum, foliar, 96 h, wheat leaf segments, assessed four days after inoculation, read-out: control of fungal infection, Septoria nodorum. It counts as in vivo.
Another data set concerns Septoria tritici. Description: Growth inhibition in nutrient broth, Septoria tritici (leaf blotch), photometric. Format: cell-based. As to conditions: Zymoseptoria tritici, PDB broth, 24 C, 72 hrs, read-out: control of fungal infection, Septoria tritici.
The test system of another data set is Fusarium culmorum. Description: Growth inhibition in nutrient broth, Fusarium culmorum (root rot), photometric. Format: cell-based. As to conditions: 48 h, read-out: control of fungal infection, Fusarium culmorum. The gist of the method:
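Fusarium culmorum conidia in potato dextrose broth were added to compounds in DMSO. Plates were incubated at 24 C for 48 hrs, with growth inhibition read photometrically. […]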

The next data set deals with Pythium ultimum. As to the kind of experiment: Growth inhibition in potato dextrose broth, Pythium ultimum (damping off), photometric. Format: cell-based. Conditions: Globisporangium ultimum, 24° C., 48 hours, read-out: control of fungal infection, Pythium ultimum. The gist of the method:
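Growth inhibition was read photometrically at 48 hours after incubation at 24° C. Test compound was diluted from DMSO to 20 ppm in water and combined with potato dextrose broth seeded with Pythium ultimum mycelial fragments.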

For `C#CCOCC(C)(COCC#C)NC(=O)C(Oc1ccc2ncc(C#C)cc2c1)SC` (stereo not drawn) [Example 12c, 2-(3-ethynyl-quinolin-6-yloxy)-N-(1-methyl-2-prop-2-ynyloxy-1-prop-2-ynyloxymethyl-ethyl)-2-methylsulfanyl-acetamide], the melting point was 95 to 100 °C.
On the same count and under the same terms, the figure for `C#Cc1cnc2cc(F)c(OC(SC)C(=O)NC(C)(C#N)CO)cc2c1` (stereo not drawn) [Compound 174, N-(1-Cyano-2-hydroxy-1-methyl-ethyl)-2-(3-ethynyl-7-fluoro-quinolin-6-yloxy)-2-methylsulfanyl-acetamide] is 80 to 83 °C.
Compound `C#Cc1cnc2ccc(OC(SC)C(=O)NC3(C)COC3)cc2c1` (stereo not drawn) [Compound 186, 2-(3-Ethynyl-quinolin-6-yloxy)-N-(3-methyl-oxetan-3-yl)-2-methylsulfanyl-acetamide] gave a melting point of 61 to 65 °C.
The same measure, in the same setting: the figure for `C#Cc1cnc2ccc(OC(SC)C(=O)NC3COC3)cc2c1` (stereo not drawn) [Compound 178, 2-(3-Ethynyl-quinolin-6-yloxy)-2-methylsulfanyl-N-oxetan-3-yl-acetamide] is 98 to 100 °C.
As to `C#CCC(C)(C)NC(=O)C(Oc1ccc2ncc(C#C)cc2c1)SC` (stereo not drawn) [Example 31], the pest or weed control at 200 ppm (with Phytophthora infestans; with Plasmopara viticola; in the data set with Botrytis cinerea; in [1]; in data set [2]; in the data set on Pyrenophora teres) was ≥ 60% each time. Moreover, in the data set on Septoria nodorum, the pest or weed control at 200 ppm is ≥ 60%. In addition, the inhibition of growth at 60 ppm in the data set on Septoria tritici and in the data set with Fusarium culmorum was ≥ 60% throughout. Besides, in the data set with Pythium ultimum, the inhibition of growth at 20 ppm was ≥ 60%.
Regarding `C#Cc1cnc2c(F)cc(OC(SC)C(=O)NC(C)C)cc2c1` (stereo not drawn) [Compound 222, 2-(3-Ethynyl-8-fluoro-quinolin-6-yloxy)-N-isopropyl-2-methylsulfanyl-acetamide], the melting point was 135 to 136 °C.
On the same count and under the same terms, the figure for `C#Cc1cnc2ccc(OC(SC)C(=O)N(O)C(C)(C)C)cc2c1` (stereo not drawn) [Compound 147, N-tert-Butyl-2-(3-ethynyl-quinolin-6-yloxy)-N-hydroxy-2-methylsulfanyl-acetamide] is 164 °C; for `C#Cc1cnc2ccc(OC(SC)C(=O)NC(C)(C#N)CO)cc2c1` (stereo not drawn) [Example 12d, N-(1-cyano-2-hydroxy-1-methyl-ethyl)-2-(3-ethynyl-quinolin-6-yloxy)-2-methylsulfanyl-acetamide] it is 78 to 80 °C.
As for `C#Cc1cnc2cc(F)c(OC(SC)C(=O)NC(C)(C)C#CCOC)cc2c1` (stereo not drawn) [Example 66], the pest or weed control at 200 ppm (in the data set with Phytophthora infestans; with Plasmopara viticola; in the data set on Botrytis cinerea; in [1]; in data set [2]; with Pyrenophora teres) was ≥ 60% in each case. In addition, in the data set on Septoria nodorum, the pest or weed control at 200 ppm was ≥ 60%. Further, the inhibition of growth at 60 ppm in the data set with Septoria tritici and in the data set on Fusarium culmorum was ≥ 60% throughout. The inhibition of growth at 20 ppm with Pythium ultimum is ≥ 60%.
Turning to `C#Cc1cnc2c(Br)cc(OC(SC)C(=O)NC(C)(C)C#CCOC)cc2c1` (stereo not drawn) [Example 70], the pest or weed control at 200 ppm (in the data set with Phytophthora infestans; in the data set on Plasmopara viticola; with Botrytis cinerea; in [1]; in data set [2]; in the data set with Pyrenophora teres) was ≥ 60% throughout. Further, in the data set with Septoria nodorum, the pest or weed control at 200 ppm was ≥ 60%. Moreover, the inhibition of growth at 60 ppm with Septoria tritici was ≥ 60%. The inhibition of growth at 20 ppm in the data set on Pythium ultimum is ≥ 60%.
Take `C#CCC(C)(C)NC(=O)C(Oc1cc(Cl)c2ncc(C#C)cc2c1)SC` (stereo not drawn) [Example 75]: the pest or weed control at 200 ppm (in the data set on Phytophthora infestans; in the data set on Plasmopara viticola; with Botrytis cinerea; in [1]; in data set [2]; with Pyrenophora teres) was ≥ 60% in each case. Moreover, the pest or weed control at 200 ppm with Septoria nodorum was ≥ 60%. The inhibition of growth at 60 ppm with Septoria tritici and with Fusarium culmorum was ≥ 60% in each case. The inhibition of growth at 20 ppm in the data set with Pythium ultimum was ≥ 60%.
Consider `C#Cc1cnc2c(Cl)cc(OC(SC)C(=O)NC(C)(C)C#CC)cc2c1` (stereo not drawn) [Example 20], for which the pest or weed control at 200 ppm (in the data set with Phytophthora infestans; in the data set with Plasmopara viticola; in the data set with Botrytis cinerea; in data set [1]; in data set [2]; in the data set on Pyrenophora teres) was ≥ 60% each time. The pest or weed control at 200 ppm in the data set with Septoria nodorum was ≥ 60%. The inhibition of growth at 60 ppm in the data set on Septoria tritici and in the data set with Fusarium culmorum was ≥ 60% each time. Besides, the inhibition of growth at 20 ppm with Pythium ultimum was ≥ 60%.
On to `C#Cc1cnc2ccc(OC(SC)C(=O)NC3(C)CSC3)cc2c1` (stereo not drawn) [Compound 224, 2-(3-Ethynyl-quinolin-6-yloxy)-2-methylsulfanyl-N-(3-methyl-thietan-3-yl)-acetamide], for which the melting point lay in the range of 132 to 134 °C.
On the same count and under the same terms, under `C#Cc1cnc2ccc(OC(SC)C(=O)NC3CSC3)cc2c1` (stereo not drawn) [Compound 223, 2-(3-Ethynyl-quinolin-6-yloxy)-2-methylsulfanyl-N-thietan-3-yl-acetamide] stands 150 to 152 °C; under `C#Cc1cnc2ccc(OC(SC)C(=O)NC(C)(C#C)CO)cc2c1` (stereo not drawn) [Compound 173, 2-(3-Ethynyl-quinolin-6-yloxy)-N-(1-hydroxymethyl-1-methyl-prop-2-ynyl)-2-methylsulfanyl-acetamide], 150 to 155 °C.
Take `C#Cc1cnc2ccc(OC(SC)C(=O)NC(C)(C#C)CO)cc2c1` (stereo not drawn) [Compound 160, 2-(3-ethynyl-quinolin-6-yloxy)-N-(1-hydroxymethyl-1-methylprop-2-ynyl)-2-methylsulfanyl-acetamide]: the melting point was in the range of 149 to 150 °C.
Consider `C#CCOCC(C)(C)NC(=O)C(Oc1ccc2ncc(C#C)cc2c1)SC` (stereo not drawn) [Example 30], for which the pest or weed control at 200 ppm (in the data set on Phytophthora infestans; in the data set with Plasmopara viticola; in the data set with Botrytis cinerea; in [1]; in [2]; with Pyrenophora teres) was ≥ 60% each time. Moreover, in the data set on Septoria nodorum, the pest or weed control at 200 ppm was ≥ 60%. Also, the inhibition of growth at 60 ppm in the data set with Septoria tritici and with Fusarium culmorum was ≥ 60% each time. For the same compound, the inhibition of growth at 20 ppm in the data set on Pythium ultimum is ≥ 60%.
`C#Cc1cnc2ccc(OC(SC)C(=O)NC(C)(C)CO)cc2c1` (stereo not drawn) [Compound 168, 2-(3-ethynyl-quinolin-6-yloxy)-N-(2-hydroxy-1,1-dimethyl-ethyl)-2-methylsulfanyl-acetamide] registered a melting point of 149 to 151 °C.
On the same count and under the same terms, under `C#Cc1cnc2c(Cl)cc(OC(SC)C(=O)NC3(C)CCC3)cc2c1` (stereo not drawn) [Compound 203, 2-(8-Chloro-3-ethynyl-quinolin-6-yloxy)-N-(1-methyl-cyclobutyl)-2-methylsulfanyl-acetamide] stands 121 to 123 °C.

For orientation: melting point means the temperature of the solid-liquid transition.
